Measurements taken from patent US20100112048A1, “Dosage Regimen and Medicament For Reducing Risk of Onset or Progression of Dementia by Administration of Specific Vitamins and Nsaid” (priority 2006, published 2010).

What was measured:
[1] = system: mortality of 39,876 healthy participants; conditions: cited from earlier work
[2] = system: mortality of elderly Cache County participants; conditions: in vivo
Method: Also, to examine the effect of these constituents on differential mortality, logistic regression was used to estimate the relative risk of mortality over the course of follow-up among the 5 user groups. These analyses, were controlled for age, sex, education, and APOE genotype status. All analyses were performed using SAS statistical software package version 8.0.
Also, an analysis was effected to assess whether there was an increased risk of mortality among any of the user groups that might potentially bias the observed associations with cognitive performance over time.

[3] = system: mortality of the elderly; conditions: placebo-controlled trial in the elderly; cited from earlier work

## vitamin E
[1]; healthy women
  cardiovascular mortality (in words): trend toward decreased cardiovascular mortality
[1]; monitored for over 10 years
  mortality vs placebo (in words): no significant difference in mortality
[2]
  harm of vitamin E, subgroup analysis (in words): may only be harmful among elderly with prior cardiovascular disease
[3]
  mortality associated with using vitamin E (in words): did not note any increased mortality
